Assay results from PubChem BioAssay (NCI).
“And” between values parts separate entries of the source, which are not always exact repeats. Identical values can stand only once.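 Protocol summary: plate cells (96-well), add compound at 5 concentrations, incubate 48 h, interpolate endpoints linearly. Abbreviation: GI50, concentration required for 50% inhibition of growth. TGI marks complete inhibition of growth.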 Where a SMILES comes first, the peptide text is derived from it. [ ]: non-standard residue; d: D form. The star is where a group is joined. ξ: configuration not given here. ξF = NC(Cc1ccccc1)C(=O)O; Cbz = O=C(OCc1ccccc1)*; Aib = CC(C)(N)C(=O)O; NHNH2 = NN*

How the values were obtained:
Assay in all cases: NCI-60 cell line screen, 48 h
BT-549 breast = tested on: BT-549 breast
DU-145 prostate = tested on: DU-145 prostate
HCC-2998 colon = tested on: HCC-2998 colon
IGROV1 ovarian = tested on: IGROV1 ovarian
OVCAR-8 ovarian = tested on: OVCAR-8 ovarian
SK-MEL-5 melanoma = tested on: SK-MEL-5 melanoma
SN12C renal = tested on: SN12C renal
SNB-75 CNS = tested on: SNB-75 CNS
OVCAR-3 ovarian = tested on: OVCAR-3 ovarian

| Structure (SMILES) | TGI (BT-549 breast) [µM] | TGI (DU-145 prostate) [µM] | TGI (HCC-2998 colon) [µM] | TGI (IGROV1 ovarian) | TGI (OVCAR-8 ovarian) | TGI (SK-MEL-5 melanoma) [µM] | TGI (SN12C renal) | TGI (SNB-75 CNS) [µM] | TGI (OVCAR-3 ovarian) | GI50 (IGROV1 ovarian) [µM] | GI50 (OVCAR-3 ovarian) [µM] |
| --- | --- | --- | --- | --- | --- | --- | --- | --- | --- | --- | --- |
| O=c1[nH]c(=O)n(COCc2ccccc2)c2ccsc12 | > 100 | > 100 | > 100 | > 100 µM | > 100 µM | > 100 | > 100 µM | > 100 | – | – | – |
| O=C(NC1(c2cc3ccccc3s2)CCCCC1)C1CCC1 | > 100 | > 100 | > 100 | > 100 µM | > 100 µM | > 100 | > 100 µM | > 100 | > 100 µM | – | – |
| CC(C)OC(=O)c1ccc(CCC2=CC(=O)C=CC2=O)cc1 | 19.7 | 37 | 32.6 | 27.5 µM | 18.1 µM | 30 | 26.5 µM | 62.5 | 17 µM | – | – |
| CC#CC(O)(C(=O)OCCCN(C)C)C1CCCCC1 (centres undefined) | > 100 | > 100 | > 100 | > 100 µM | > 100 µM | > 100 | > 100 µM | > 100 | > 100 µM | – | – |
| CCOC(=O)c1nc2ccc(C(F)(F)F)cc2nc1NCc1ccc(OC)cc1 | > 100 | – | – | > 100 µM | > 100 µM | > 100 | – | > 100 | > 100 µM | – | – |
| COc1ccc(C2NC(=S)Nc3c2c(=O)oc2c3ccc3ccccc32)cc1 (centres undefined) | > 100 | > 100 | – | > 100 µM | > 100 µM | > 100 | > 100 µM | 96.4 | > 100 µM | – | – |
| O=C1/C(=C\Oc2ccc(F)cc2)N2CCC1CC2 | > 100 | 36.7 | – | > 100 µM | > 100 µM | > 100 | > 100 µM | > 100 | > 100 µM | – | – |
| CCOc1cc(C2SCC(=O)N2c2ccc(Oc3ccc(Cl)cc3)c(Cl)c2)ccc1O (centres undefined) | 31.5 | 31.3 | 35.8 | 32 µM | 38.2 µM | 31.5 | 59.3 µM | 37.3 | 30.6 µM | – | – |
| CC(C)=CCC[C@]1(C)C=Cc2c(O)c3c(c(CC=C(C)C)c2O1)O[C@]12C(=C[C@@H]4CC1C(C)(C)O[C@@]2(C/C=C(/C)C(=O)O)C4=O)C3=O | 7.03 | – | 2.81 | 2.81 µM | 4.19 µM | – | 4.69 µM | 3.28 | 2.67 µM | – | – |
| Cc1c(N2C(=O)/C(=C/c3ccc(Cl)cc3)N=C2c2ccccc2)c(=O)n(-c2ccccc2)n1C | > 100 | > 100 | – | 88.5 µM | > 100 µM | 34.3 | > 100 µM | 80.3 | > 100 µM | – | – |
| O=C1NC(N2CCOCC2)=N/C1=C\c1ccc(Cl)cc1 | > 100 | > 100 | > 100 | > 100 µM | > 100 µM | – | > 100 µM | > 100 | > 100 µM | – | – |
| Oc1ccc(O)c(CNc2ccc(C(O)C(F)(F)F)cc2)c1 (centres undefined) | 28.2 | 28.5 | – | 30.1 µM | > 100 µM | 76.2 | 47.5 µM | > 100 | 15.4 µM | – | – |
| N#CC(C(=O)c1cccnc1Cl)c1nc2cc(C(F)(F)F)ccc2s1 (centres undefined) | > 100 | > 100 | – | > 100 µM | > 100 µM | > 100 | > 100 µM | > 100 | > 100 µM | – | – |
| C[C@@H](c1ccccc1)n1c(N)c(-c2ccccn2)c2ccc([N+](=O)[O-])cc2c1=O | > 100 | > 100 | > 100 | – | > 100 µM | > 100 | > 100 µM | 63 | – | – | – |
| CN(C)c1ccc(C=Nc2ccc(-c3nc4ccccc4[nH]3)cc2)cc1 | 88.8 | > 100 | – | > 100 µM | > 100 µM | > 100 | > 100 µM | > 100 | > 100 µM | – | – |
| O=c1[nH]c2nnc(COc3ccc(Cl)cc3Cl)n2nc1Cc1ccccc1 | > 100 | > 100 | – | 76.6 µM | 53.9 µM | > 100 | > 100 µM | 38.8 | 74.3 µM | – | – |
| COC(=O)C1CCC(=O)N1CN(C(C)=O)c1ccccc1Cl (centres undefined) | – | > 100 | > 100 | > 100 µM | > 100 µM | > 100 | > 100 µM | > 100 | > 100 µM | – | – |
| NC(Cc1ccc(OCc2ccccc2)cn1)C(=O)O (centres undefined) | > 100 | > 100 | > 100 | > 100 µM | > 100 µM | > 100 | > 100 µM | – | > 100 µM | – | – |

| Structure (SMILES) | TGI (BT-549 breast) [µM] | TGI (DU-145 prostate) [µM] | TGI (HCC-2998 colon) [µM] | TGI (IGROV1 ovarian) | TGI (OVCAR-8 ovarian) | TGI (SK-MEL-5 melanoma) [µM] | TGI (SN12C renal) | TGI (SNB-75 CNS) [µM] | TGI (OVCAR-3 ovarian) | GI50 (IGROV1 ovarian) [µM] | GI50 (OVCAR-3 ovarian) [µM] |
| --- | --- | --- | --- | --- | --- | --- | --- | --- | --- | --- | --- |
| CC1=CC(=O)CC(C)(C)C1/C=C/C(C)=C/C=C/C(C)=C/C=C/C=C(C)/C=C/C=C(C)/C=C/C1C(C)=CC(=O)CC1(C)C (centres undefined) | – | > 100 | > 100 | > 100 µM | 49 µM | > 100 | – | – | > 100 µM | – | – |
| COc1cc(NS(C)(=O)=O)ccc1Nc1cc[nH]c2ccc3nccc3c12 | 28.7 | 27.7 | – | 31.2 µM | 28.8 µM | 29.8 | 28.2 µM | – | 29.4 µM | – | – |
| OC(c1ccc(F)cc1)C(F)(F)c1nc2ccccc2o1 (centres undefined) | > 100 | > 100 | > 100 | > 100 µM | > 100 µM | > 100 | – | > 100 | – | – | – |
| Cc1cn([C@@H]2C[C@@H]2CO)c(=O)[nH]c1=O | > 100 | > 100 | > 100 | > 100 µM | > 100 µM | > 100 | > 100 µM | > 100 | – | – | – |
| COc1ccccc1NC(=S)NN=C(C)c1cccc(C(C)=NNC(=S)Nc2ccccc2OC)n1 | – | > 100 | > 100 | > 100 µM | > 100 µM | 32.7 | > 100 µM | > 100 | > 100 µM | – | – |
| O=[N+]([O-])c1cccc2nc3ccccc3c(NCCCn3ccnc3[N+](=O)[O-])c12 | – | – | 0.000515 | 0.212 µM and 0.412 µM | 0.0126 µM and 0.0167 µM | – | 0.0722 µM and 0.0198 µM | 0.0775 | 0.0178 µM and 0.0633 µM | 0.0419 | 0.0122 |
| COc1ccc(N=Nc2c(C)c(C#N)c(=S)n(C3OC(CO)C(O)C(O)C3O)c2-c2ccccc2)cc1 (centres undefined) | 97.6 | > 100 | > 100 | > 100 µM | – | 27.8 | > 100 µM | 49.1 | 55.3 µM | – | – |
| N#Cc1nc(CCN2C(=O)c3ccccc3C2=O)oc1N | > 100 | > 100 | > 100 | > 100 µM | > 100 µM | > 100 | > 100 µM | – | > 100 µM | – | – |
| CC(C)(NC(=O)OCc1ccccc1)C(=O)NC(Cc1ccccc1)C(=O)NN (centres undefined) (Cbz-[Aib]-[ξF]-NHNH2) | > 100 | > 100 | – | > 100 µM | > 100 µM | > 100 | > 100 µM | > 100 | > 100 µM | – | – |
| CC[C@H](C)[C@H]1NC(=O)[C@@H](NC(=O)[C@@H](CC(C)C)N(C)C(=O)C2CCCN2C(=O)[C@H](C)O)[C@@H](C)OC(=O)[C@H](Cc2ccc(OC)cc2)N(C)C(=O)[C@@H]2CCCN2C(=O)[C@H](CCCCNC(=O)OCc2ccccc2)NC(=O)[C@H](C)C(=O)[C@H](C(C)C)OC(=O)C[C@@H]1O (some centres undefined) | > 25 | > 25 | 9.79 | > 25 µM | > 25 µM | > 25 | > 25 µM | – | 24.8 µM | – | – |
| CC(C)(O)/C=C\P(=O)(O)O | – | > 100 | > 100 | > 100 µM | > 100 µM | > 100 | > 100 µM | > 100 | > 100 µM | – | – |
| CC(Nc1ncc2c(n1)-c1ccccc1OC2)C(=O)O (centres undefined) | – | > 100 | – | > 100 µM | > 100 µM | > 100 | > 100 µM | > 100 | > 100 µM | – | – |
| Cc1ccn2c(=O)cc(CN3CCOCC3)nc2c1 | > 100 | > 100 | > 100 | > 100 µM | > 100 µM | – | > 100 µM | > 100 | > 100 µM | – | – |
| CCOC(=O)c1c[nH]c2c(Sc3ccccc3)nccc2c1=O | > 100 | > 100 | – | > 100 µM | > 100 µM | > 100 | > 100 µM | > 100 | > 100 µM | – | – |
| S=c1[nH]nc(CNc2ccc(-c3n[nH]c(=S)n3-c3ccc(Cl)cc3)cc2)n1-c1ccc(Cl)cc1 | > 100 | 71.1 | > 100 | 47.1 µM | – | 65 | 82.8 µM | > 100 | – | – | – |
| O=C(O)CCCC(=O)Nn1c(Cc2ccc(Cl)cc2)n[nH]c1=O | > 100 | > 100 | – | > 100 µM | > 100 µM | > 100 | > 100 µM | – | > 100 µM | – | – |
| Nc1ccc2c(O)cc(=O)[nH]c2n1 | > 100 | > 100 | – | > 100 µM | > 100 µM | > 100 | > 100 µM | > 100 | – | – | – |
| Cc1nc(N)c(N2CCN(C(=O)O)CC2)c(=O)[nH]1 | > 100 | > 100 | > 100 | – | > 100 µM | – | > 100 µM | > 100 | > 100 µM | – | – |
